Measurements published in patent USRE48461E1, “Modulation of androgen receptor expression” (Ionis Pharmaceuticals, Inc., priority 2012, dated 2021).

Legend:
[1] = cynomolgus monkey, in vivo, sc, 40 mg/kg
[2] = cynomolgus monkey, in vivo, sc, 40 mg/kg; remark: listed apart in the source
Method: Prior to the study, the monkeys were kept in quarantine for a 30-day period, during which the animals were observed daily for general health. The monkeys were 2-4 years old and weighed between 2 and 4 kg. Thirteen groups of four randomly assigned male cynomolgus monkeys each were injected subcutaneously with ISIS oligonucleotide or PBS. PBS solution or ISIS oligonucleotides, at a dose of 40 mg/kg, were administered with a loading regimen consisting of four doses on the first week of the study (days 1, 3, 5, and 7), followed by a maintenance regimen consisting of once weekly administration starting on Day 14 (weeks 2 to 6). Subcutaneous injections were performed in clock-wise rotations at 4 sites on the back; one site per dose. The injection sites were delineated by tattoo, while sedated using ketamine, and were separated by a minimum of 3 cm.
To evaluate any effect of ISIS oligonucleotides in cynomolgus monkeys on hematologic parameters, blood samples of approximately 0.5 mL of blood was collected day 44 from each of the available study animals in tubes containing K2-EDTA. Samples were analyzed for red blood cell (RBC) count, white blood cells (WBC) count, platelet count, hemoglobin content and hematocrit, using an ADVIA2120i hematology analyzer (SIEMENS, USA).

[3] = cynomolgus monkey, in vivo, sc, 40 mg/kg; remark: listed apart in the source
[4] = cynomolgus monkey, in vivo, sc, 40 mg/kg; remark: listed apart in the source
[5] = cynomolgus monkey, in vivo, sc, 40 mg/kg; remark: listed apart in the source
Method: The monkeys were 2-4 years old and weighed between 2 and 4 kg. Thirteen groups of four randomly assigned male cynomolgus monkeys each were injected subcutaneously with ISIS oligonucleotide or PBS. PBS solution or ISIS oligonucleotides, at a dose of 40 mg/kg, were administered with a loading regimen consisting of four doses on the first week of the study (days 1, 3, 5, and 7), followed by a maintenance regimen consisting of once weekly administration starting on Day 14 (weeks 2 to 6). Subcutaneous injections were performed in clock-wise rotations at 4 sites on the back; one site per dose. The injection sites were delineated by tattoo, while sedated using ketamine, and were separated by a minimum of 3 cm.
To evaluate any inflammatory effect of ISIS oligonucleotides in cynomolgus monkeys, the monkeys were fasted overnight. Approximately, 1.5 mL of blood samples were collected from all the study groups on day 44. Blood was collected in tubes without anticoagulant for serum separation. The tubes were kept at room temperature for a minimum of 90 min and then centrifuged at 3,000 rpm for 10 min. C-reactive protein (CRP), which is synthesized in the liver and which serves as a marker of inflammation, was measured on day 43 using a Toshiba 120FR NEO chemistry analyzer (Toshiba Co., Japan). Complement C3 was also measured similarly, and the data is presented as a percentage of baseline values.

[6] = system: MDA-MB-453 tumor; assay: Tumor volume in MDA-MB-453 breast cancer orthotopic model; type: in vivo, NSG mice; settings: 50 mg/kg s.c. five times a week for 4 weeks; for Tumor volume: Study 1, MDA-MB-453 orthotopic, NSG mice
[7] = system: AR mRNA; assay: AR mRNA expression in MDA-MB-453 breast cancer orthotopic model; type: in vivo, human; settings: Study 1; TB-interface, normalized to actin; 50 mg/kg s.c. five times a week for 4 weeks

For “TGATTTAATGGTTGCA [ISIS 569216] (cEt/MOE gapmer chemistry, further chemistry not given here)”, which “Plasma BUN” value [1] is on record?
The value was 28.4 mg/dL.

And the “Plasma Creatinine” value [1]?
The value was 0.81 mg/dL.

What about the HCT [2] of the same sequence?
The HCT was 43%.

What about the Hemoglobin [2] of the same sequence?
Its Hemoglobin is 12.8 g/dL.

And the Platelets [2]?
The Platelets was 504000 µL.

What about the RBC [2] of the same sequence?
The RBC was 5.6e+06 µL.

And the WBC [2]?
Its WBC is 12200 µL.

What about the ALT [3] of the same sequence?
The ALT was 75 IU/L.

And the AST [3]?
The AST was 93 IU/L.

What about the Albumin [3] of the same sequence?
Its Albumin is 3.7 g/dL.

What about the “Body Wt” value [4] of the same sequence?
The value was 2.6 kg.

And the Heart weight [4]?
Its Heart weight is 9.3 g.

And the Kidney weight [4]?
The Kidney weight was 15 g.

What about the Liver weight [4] of the same sequence?
The Liver weight was 71 g.

And the “Mesenteric lymph nodes weight” value [4]?
The value was 2.7 g.

What about the Spleen weight [4] of the same sequence?
The Spleen weight was 4.9 g.

What about the “C3 (% of baseline)” value [5] of the same sequence?
The value was 94 % of baseline.

And the CRP [5]?
Its CRP is 3.6 mg/dL.

And the Tumor volume ([6]; Day 16)?
The Tumor volume was 134.

And the Tumor volume ([6]; Day 23)?
Its Tumor volume is 142.

What about the Tumor volume ([6]; Day 30) of the same sequence?
The Tumor volume was 173.

And the Tumor volume ([6]; Day 37)?
Its Tumor volume is 125.

And the Tumor volume ([6]; Day 44)?
The Tumor volume was 92.

What about the Tumor volume ([6]; Day 51) of the same sequence?
Its Tumor volume is 73.

And the Tumor volumes ([6]; Study 1, MDA-MB-453 model)?
The Tumor volumes was “tumor volumes were significantly decreased”.

What about the “AR mRNA expression inhibited compared to the control group” value [7] of the same sequence?
Its value is 48%.
